From US9902702B2, “Spirocycloheptanes as inhibitors of rock” (BRISTOL-MYERS SQUIBB COMPANY, priority 2014, dated 2018) come the findings set out here.

By IC50 is commonly meant the concentration needed to halve the response being measured.

ROCK2, sequence (O75116 whole entry, species assumed): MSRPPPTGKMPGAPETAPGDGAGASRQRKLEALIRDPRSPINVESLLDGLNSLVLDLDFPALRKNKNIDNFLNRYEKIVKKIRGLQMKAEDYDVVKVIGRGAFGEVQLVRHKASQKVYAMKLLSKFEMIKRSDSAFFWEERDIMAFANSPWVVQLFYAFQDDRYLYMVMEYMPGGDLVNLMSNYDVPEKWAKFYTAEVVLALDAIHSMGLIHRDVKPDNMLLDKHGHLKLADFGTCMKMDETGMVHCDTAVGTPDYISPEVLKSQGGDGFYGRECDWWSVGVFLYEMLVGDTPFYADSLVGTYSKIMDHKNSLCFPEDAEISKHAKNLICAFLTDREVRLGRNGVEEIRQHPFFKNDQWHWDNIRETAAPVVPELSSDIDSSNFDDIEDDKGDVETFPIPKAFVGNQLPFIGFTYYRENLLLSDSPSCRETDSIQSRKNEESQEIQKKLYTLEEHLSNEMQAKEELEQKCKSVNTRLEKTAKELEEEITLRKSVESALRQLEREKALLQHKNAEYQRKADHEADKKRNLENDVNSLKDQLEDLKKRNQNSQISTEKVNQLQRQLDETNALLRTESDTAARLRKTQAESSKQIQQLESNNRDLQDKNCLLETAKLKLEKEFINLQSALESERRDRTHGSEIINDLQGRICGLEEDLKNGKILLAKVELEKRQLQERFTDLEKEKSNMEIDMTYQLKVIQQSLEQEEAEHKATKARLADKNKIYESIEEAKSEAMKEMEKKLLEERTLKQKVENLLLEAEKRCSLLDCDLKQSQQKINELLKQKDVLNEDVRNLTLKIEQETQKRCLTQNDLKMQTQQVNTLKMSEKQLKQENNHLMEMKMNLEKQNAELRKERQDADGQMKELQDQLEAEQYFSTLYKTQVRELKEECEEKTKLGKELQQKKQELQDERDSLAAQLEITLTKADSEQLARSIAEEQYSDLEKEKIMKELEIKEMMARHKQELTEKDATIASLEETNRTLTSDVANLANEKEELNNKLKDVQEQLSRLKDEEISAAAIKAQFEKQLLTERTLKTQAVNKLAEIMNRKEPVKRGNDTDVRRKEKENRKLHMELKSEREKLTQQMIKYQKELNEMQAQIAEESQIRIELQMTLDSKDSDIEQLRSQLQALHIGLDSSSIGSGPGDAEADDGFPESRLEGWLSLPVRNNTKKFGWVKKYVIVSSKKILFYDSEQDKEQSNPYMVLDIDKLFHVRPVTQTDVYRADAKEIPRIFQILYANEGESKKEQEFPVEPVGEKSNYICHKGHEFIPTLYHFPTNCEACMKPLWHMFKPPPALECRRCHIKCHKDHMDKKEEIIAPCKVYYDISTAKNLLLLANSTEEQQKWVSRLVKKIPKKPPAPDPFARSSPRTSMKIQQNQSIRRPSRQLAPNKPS

This experiment concerns the target ROCK2 (Homo sapiens, UniProt O75116). Nature of the experiment: ROCK assay: phosphorylation of FITC peptide substrate, LABCHIP 3000 mobility shift. Format: biochemical. To be noted: 5 μM ATP, 1.5 μM peptide substrate; read-out: ROCK2 Activity (ROCK IC50 range). The method, boiled down: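 Rho kinase variant phosphorylates 1.5 μM FITC-AHA-AKRRRLSSLRA-OH with 5 μM ATP in 20 mM HEPES pH 7.5, 20 mM MgCl2, 0.015% Brij-35, 4 mM DTT, DMSO <2%. EDTA stops the reaction, and phospho and non-phospho peptides are resolved by LabChip 3000 mobility shift. IC50 from dose-response curve fit.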
Turning to `O=C(NC1CC2(C1)CC(c1n[nH]c(=O)c3ccccc13)C2)c1cnn2cc(CCCO)ccc12` [Example 195, 6-(3-hydroxypropyl)-N-((aR)-6-(4-oxo-3,4-dihydrophthalazin-1-yl)spiro[3.3]heptan-2-yl)pyrazolo[1,5-a]pyridine-3-carboxamide], the IC50 lay within 5.1 to 15 nM.

`O=C(NC1CC2(C1)CC(c1n[nH]c(=O)c3ccccc13)C2)c1cnn2cc(CCCN3CCC(F)(F)CC3)ccc12` [Example 196, 6-(3-(4,4-difluoropiperidin-1-yl)propyl)-N-((aR)-6-(4-oxo-3,4-dihydrophthalazin-1-yl)spiro[3.3]heptan-2-yl)pyrazolo[1,5-a]pyridine-3-carboxamide]: the IC50 was 2.01 to 5 nM.

With `O=C(NC1CC2(C1)CC(c1n[nH]c(=O)c3ccccc13)C2)c1cnn2cc(CCCN3CCC(F)(F)C3)ccc12` [Example 197, 6-(3-(3,3-difluoropyrrolidin-1-yl)propyl)-N-((aR)-6-(4-oxo-3,4-dihydrophthalazin-1-yl)spiro[3.3]heptan-2-yl)pyrazolo[1,5-a]pyridine-3-carboxamide], the IC50 fell in the range of 0.2 to 2 nM.

On to `CC(C)(O)CCc1ccc2c(C(=O)N[C@H]3CC4(C3)C[C@H](c3n[nH]c(=O)c5ccccc53)C4)cnn2c1` (stereo partly drawn) [Example 198, 6-(3-hydroxy-3-methylbutyl)-N-((aR)-6-(4-oxo-3,4-dihydrophthalazin-1-yl)spiro[3.3]heptan-2-yl)pyrazolo[1,5-a]pyridine-3-carboxamide], for which the IC50 lay in the range of 0.2 to 2 nM.

Consider `O=C(N[C@H]1CC2(C1)C[C@H](c1n[nH]c(=O)c3ccccc31)C2)c1cnn2cc(CCC(O)(C(F)(F)F)C(F)(F)F)ccc12` (stereo partly drawn) [Example 199, N-((aR)-6-(4-oxo-3,4-dihydrophthalazin-1-yl)spiro[3.3]heptan-2-yl)-6-(4,4,4-trifluoro-3-hydroxy-3-(trifluoromethyl)butyl)pyrazolo[1,5-a]pyridine-3-carboxamide], for which the IC50 fell in the range of 2.01 to 5 nM.

As to `O=C(N[C@H]1CC2(C1)C[C@H](c1n[nH]c(=O)c3ccccc31)C2)c1cnn2cc(CN3CCOCC3)ccc12` (stereo partly drawn) [Example 200, 6-(morpholinomethyl)-N-((aR)-6-(4-oxo-3,4-dihydrophthalazin-1-yl)spiro[3.3]heptan-2-yl)pyrazolo[1,5-a]pyridine-3-carboxamide], the IC50 lay within 5.1 to 15 nM.

In the case of `CN1CCN(Cc2ccc3c(C(=O)NC4CC5(C4)CC(c4n[nH]c(=O)c6ccccc46)C5)cnn3c2)CC1` [Example 201, 6-((4-methylpiperazin-1-yl)methyl)-N-((aR)-6-(4-oxo-3,4-dihydrophthalazin-1-yl)spiro[3.3]heptan-2-yl)pyrazolo[1,5-a]pyridine-3-carboxamide], the half-inhibitory concentration (IC50) was in the range of 2.01 to 5 nM.

Consider `O=C(NC1CC2(C1)CC(c1n[nH]c(=O)c3ccccc13)C2)c1cnn2cc(CN3CCCCC3)ccc12` [Example 202, N-((aR)-6-(4-oxo-3,4-dihydrophthalazin-1-yl)spiro[3.3]heptan-2-yl)-6-(piperidin-1-ylmethyl)pyrazolo[1,5-a]pyridine-3-carboxamide], for which the concentration for half-maximal inhibition (IC50) was 5.1 to 15 nM.

In the case of `CN(C)Cc1ccc2c(C(=O)NC3CC4(C3)CC(c3n[nH]c(=O)c5ccccc35)C4)cnn2c1` [Example 203, 6-((dimethylamino)methyl)-N-((aR)-6-(4-oxo-3,4-dihydrophthalazin-1-yl)spiro[3.3]heptan-2-yl)pyrazolo[1,5-a]pyridine-3-carboxamide], the IC50 was in the range of 5.1 to 15 nM.

In the case of `O=C(NC1CC2(C1)CC(c1n[nH]c(=O)c3ccccc13)C2)c1cnn2cc(Cc3ccccc3)ccc12` [Example 204, 6-benzyl-N-((aR)-6-(4-oxo-3,4-dihydrophthalazin-1-yl)spiro[3.3]heptan-2-yl)pyrazolo[1,5-a]pyridine-3-carboxamide], the IC50 lay within 0.2 to 2 nM.

On to `O=C(NC1CC2(C1)CC(c1n[nH]c(=O)c3ccccc13)C2)c1cnn2cc(CCC(=O)N3CCOCC3)ccc12` [Example 205, 6-(3-morpholino-3-oxopropyl)-N-((aR)-6-(4-oxo-3,4-dihydrophthalazin-1-yl)spiro[3.3]heptan-2-yl)pyrazolo[1,5-a]pyridine-3-carboxamide], for which the IC50 was 2.01 to 5 nM.

Consider `O=C(NC1CC2(C1)CC(c1n[nH]c(=O)c3ccccc13)C2)c1cnn2cc(CCC(F)(F)F)ccc12` [Example 206, N-((aR)-6-(4-oxo-3,4-dihydrophthalazin-1-yl)spiro[3.3]heptan-2-yl)-6-(3,3,3-trifluoropropyl)pyrazolo[1,5-a]pyridine-3-carboxamide], for which the IC50 fell in the range of 0.2 to 2 nM.

Turning to `N#CCCc1ccc2c(C(=O)NC3CC4(C3)CC(c3n[nH]c(=O)c5ccccc35)C4)cnn2c1` [Example 207, 6-(2-cyanoethyl)-N-((aR)-6-(4-oxo-3,4-dihydrophthalazin-1-yl)spiro[3.3]heptan-2-yl)pyrazolo[1,5-a]pyridine-3-carboxamide], the IC50 is 2.01 to 5 nM.

For `O=C(NC1CC2(C1)CC(c1n[nH]c(=O)c3ccccc13)C2)c1cnn2cc(COCCN3CCOCC3)ccc12` [Example 208, 6-((2-morpholinoethoxy)methyl)-N-((aR)-6-(4-oxo-3,4-dihydrophthalazin-1-yl)spiro[3.3]heptan-2-yl)pyrazolo[1,5-a]pyridine-3-carboxamide], the IC50 is 2.01 to 5 nM.

Consider `COCc1ccc2c(C(=O)NC3CC4(C3)CC(c3n[nH]c(=O)c5ccccc35)C4)cnn2c1` [Example 209, 6-(methoxymethyl)-N-((aR)-6-(4-oxo-3,4-dihydrophthalazin-1-yl)spiro[3.3]heptan-2-yl)pyrazolo[1,5-a]pyridine-3-carboxamide], for which the IC50 is 5.1 to 15 nM.

As to `COc1ncc(-c2ccc3c(C(=O)NC4CC5(C4)CC(c4n[nH]c(=O)c6ccccc46)C5)cnn3c2)cn1` [Example 210, 6-(2-methoxypyrimidin-5-yl)-N-((aR)-6-(4-oxo-3,4-dihydrophthalazin-1-yl)spiro[3.3]heptan-2-yl)pyrazolo[1,5-a]pyridine-3-carboxamide], the IC50 was in the range of 2.01 to 5 nM.

Regarding `O=C(NC1CC2(C1)CC(c1n[nH]c(=O)c3ccccc13)C2)c1cnn2cc(COCC3CCOCC3)ccc12` [Example 211, N-((aR)-6-(4-oxo-3,4-dihydrophthalazin-1-yl)spiro[3.3]heptan-2-yl)-6-(((tetrahydro-2H-pyran-4-yl)methoxy)methyl)pyrazolo[1,5-a]pyridine-3-carboxamide], the IC50 was 2.01 to 5 nM.

Turning to `[H][C@]1(c2n[nH]c(=O)c3ccccc32)C[C@]2(C[C@@H](NC(=O)c3cnn4cc(COCC=C)ccc34)C2)C1` (stereo partly drawn) [Example 212, 6-((allyloxy)methyl)-N-((aR)-6-(4-oxo-3,4-dihydrophthalazin-1-yl)spiro[3.3]heptan-2-yl)pyrazolo[1,5-a]pyridine-3-carboxamide], the IC50 lay in the range of 0.2 to 2 nM.

For `O=C(N[C@H]1CC2(C1)C[C@H](c1n[nH]c(=O)c3ccccc31)C2)c1cnn2cc(CO)ccc12` (stereo partly drawn) [Example 213, 6-(hydroxymethyl)-N-((aR)-6-(4-oxo-3,4-dihydrophthalazin-1-yl)spiro[3.3]heptan-2-yl)pyrazolo[1,5-a]pyridine-3-carboxamide], the IC50 lay within 5.1 to 15 nM.

Consider `CC(=O)c1ccc2c(C(=O)N[C@H]3CC4(C3)C[C@H](c3n[nH]c(=O)c5ccccc53)C4)cnn2c1` (stereo partly drawn) [Example 214, 6-acetyl-N-((aR)-6-(4-oxo-3,4-dihydrophthalazin-1-yl)spiro[3.3]heptan-2-yl)pyrazolo[1,5-a]pyridine-3-carboxamide], for which the IC50 lay within 2.01 to 5 nM.

`CC(C)(O)c1ccc2c(C(=O)N[C@H]3CC4(C3)C[C@H](c3n[nH]c(=O)c5ccccc53)C4)cnn2c1` (stereo partly drawn) [Example 215, 6-(2-hydroxypropan-2-yl)-N-((aR)-6-(4-oxo-3,4-dihydrophthalazin-1-yl)spiro[3.3]heptan-2-yl)pyrazolo[1,5-a]pyridine-3-carboxamide]: the IC50 was 5.1 to 15 nM.

As for `Cc1c(-c2ccc3c(C(=O)N[C@H]4CC5(C4)C[C@H](c4n[nH]c(=O)c6ccccc64)C5)cnn3c2)cnn1C` (stereo partly drawn) [Example 216, 6-(1,5-dimethyl-1H-pyrazol-4-yl)-N-((aR)-6-(4-oxo-3,4-dihydrophthalazin-1-yl)spiro[3.3]heptan-2-yl)pyrazolo[1,5-a]pyridine-3-carboxamide], the IC50 was 0.2 to 2 nM.

As to `O=C(NC1CC2(C1)CC(c1n[nH]c(=O)c3ccccc13)C2)c1cnn2cc(-c3cnn(C4CC4)c3)ccc12` [Example 217, 6-(1-cyclopropyl-1H-pyrazol-4-yl)-N-((aR)-6-(4-oxo-3,4-dihydrophthalazin-1-yl)spiro[3.3]heptan-2-yl)pyrazolo[1,5-a]pyridine-3-carboxamide], the IC50 lay within 0.2 to 2 nM.

`O=C(NC1CC2(C1)CC(c1n[nH]c(=O)c3ccccc13)C2)c1cnn2cc(-c3cnn(CC4CC4)c3)ccc12` [Example 218, 6-(1-(cyclopropylmethyl)-1H-pyrazol-4-yl)-N-((aR)-6-(4-oxo-3,4-dihydrophthalazin-1-yl)spiro[3.3]heptan-2-yl)pyrazolo[1,5-a]pyridine-3-carboxamide]: the IC50 was 0.2 to 2 nM.

For `[2H]C([2H])([2H])n1cc(-c2ccc3c(C(=O)NC4CC5(C4)CC(c4n[nH]c(=O)c6ccccc46)C5)cnn3c2)cn1` (stereo not drawn) [Example 219], the IC50 fell in the range of 0.2 to 2 nM.

With `CC(C)n1cc(-c2ccc3c(C(=O)NC4CC5(C4)CC(c4n[nH]c(=O)c6ccccc46)C5)cnn3c2)cn1` [Example 220, 6-(1-isopropyl-1H-pyrazol-4-yl)-N-((aR)-6-(4-oxo-3,4-dihydrophthalazin-1-yl)spiro[3.3]heptan-2-yl)pyrazolo[1,5-a]pyridine-3-carboxamide], the IC50 fell in the range of 0.2 to 2 nM.

In the case of `Cc1nn(C)c(C)c1-c1ccc2c(C(=O)NC3CC4(C3)CC(c3n[nH]c(=O)c5ccccc35)C4)cnn2c1` [Example 221, N-((aR)-6-(4-oxo-3,4-dihydrophthalazin-1-yl)spiro[3.3]heptan-2-yl)-6-(1,3,5-trimethyl-1H-pyrazol-4-yl)pyrazolo[1,5-a]pyridine-3-carboxamide], the IC50 fell in the range of 0.2 to 2 nM.
